Measurements reported in patent US9388250B2, “Method to treat psoriasis and other hyperproliferative skin disorders” (CORNELL UNIVERSITY, priority 2009, dated 2016).

Columns and labels:
[1] = tested on: C57B1/6 mouse ears; assay: IL-22-induced acanthosis in mouse ears, topical application of KH7; type: in vivo; conditions: ear painted with 100 micromolar KH7 in DMSO one hour after IL-22 injection, every other day for two weeks, three mice, ANOVA P<0.05 IL-22 vs IL-22+KH7, not different from control
Experimental: FIG. 11. Topical application of KH7 inhibits IL-22-induced acanthosis As before C57B1/6 mouse ears were injected with normal saline (control) or 500 ng of IL-22 in 20 microliters of normal saline (IL-22). After incubation for one hour the left ear was painted with 5 microliters of DMSO and the right ear was painted with 100 micromolar KH7 in DMSO (IL-22+KH7). This was repeated every other day for two weeks. The ears were then removed and the total area of acanthosis of each ear was calculated and represented as a % of acanthosis relative to control ears. […]
IL-22 protein was purchased from Preprotech and reconstituted in sterile water as per the manufacturer's instructions. […] Epidermal height was measured from the bottom of the basal cell layer to the top of the granular cell layer using a microscope and a micrometer. Three to four measurements were taken along the ear and multiple sections were measured for each condition. In addition, the total number of acanthotic ear sections were recorded as an indication of the distribution of acanthosis.
Topical application of KH7 inhibits IL-22-induced acanthosis. […] The ears were then removed and the total area of acanthosis of each ear was calculated and represented as a % of acanthosis relative to control ears. […]

[2] = tested on: keratinocytes in culture; assay: IL-22-induced rise in cAMP within keratinocytes in culture; type: cell-based; conditions: IL-22 stimulated
Excerpt: To address the role of sAC in keratinocyte proliferation we studied IL-22-induced psoriasis pathogenesis as a model system. IL-22 induced a rise in cAMP within keratinocytes in culture. This cAMP rise was inhibited by KH7 (a specific inhibitor of sAC).

[3] = tested on: C57B1/6 mouse ears; assay: IL-22-induced acanthosis in mouse ears, subcutaneous co-injection of IL-22+KH7; type: in vivo
Experimental: FIG. 1 Tissue sections stained with H/E of C57B1/6 mouse ears following injection with saline, IL-22 and IL-22+KH7 (a sAc inhibitor). Slides were visualized on a standard pathology microscope. Bar graph in lower right corner represents the average±SEM thickness of epidermis in each of three conditions listed in the previous sentence. a student t test was performed with p value listed.
IL-22 protein was purchased from Preprotech and reconstituted in sterile water as per the manufacturer's instructions. Concentrated IL-22 was diluted to a working concentration of 500 ng/20 μL in sterile saline alone, or with KH7 at 100 μM. These solutions were prepared fresh each day they were used. C57B1/6 mice greater than 2 months in age, kept under a normal light/dark cycle, and fed normal chow were injected subcutaneously in their left ear with 20 μL of IL-22 alone and in their right ear with 20 μL of IL-22+KH7 every other day for two weeks, or were injected subcutaneously in their left and right ear with 20 μL of IL-22 and then treated topically (54) following each injection with vehicle on the left ear and KH7 on the right ear every other day for two weeks. As a control C57B1/6 mice were injected with 20 μL of IL-22 in their left ear and 20 μL of sterile saline alone in their right ear every other day for two weeks. After two weeks the ears were removed, formalin fixed, paraffin embedded, sectioned, and stained with simple hematoxylin and eosin. Epidermal height was measured from the bottom of the basal cell layer to the top of the granular cell layer using a microscope and a micrometer. Three to four measurements were taken along the ear and multiple sections were measured for each condition. In addition, the total number of acanthotic ear sections were recorded as an indication of the distribution of acanthosis.

CC(Sc1nc2ccccc2[nH]1)C(=O)N/N=C/c1cc(Br)ccc1O (centres unmarked) [KH7]
IL-22-induced acanthosis (total area of acanthosis, % relative to control ears) [1]: inhibits | IL-22-induced cAMP rise within keratinocytes [2]: inhibited | IL-22-induced acanthosis (thickness of epidermis) ([3]; IL-22 500 ng/20 μL with KH7 at 100 μM, every other day for two weeks): completely blocked | IL-22-induced parakeratosis ([3]; IL-22 with KH7, every other day for two weeks): completely blocked | IL-22-induced recruitment of immunocytes (ie T cells) ([3]; injection of IL-22+KH7, H/E sections): completely blocked
